Patent US6723702B2, “Use of relaxin treat diseases related to vasoconstriction” (RAS Medical, Inc., priority 2000, dated 2004)
Read-outs that look alike come from different tables or passages of the source. Marks after values point to notes of the source that are not given here.

Assays:
intact, female rats = test: Hematocrit and plasma osmolality during chronic relaxin infusion; type: in vivo, rat; settings: for Hematocrit, Difference between baseline and Day 5 / Plasma osmolality, Difference between baseline and Day 5: 4 μg/h s.c. infusion
Method: At the beginning of each experiment, immediately after opening the arterial catheter and before infusion of fluids, 100 μl of blood was collected into a heparinized tube. After centrifugation to separate blood cells from plasma, the latter was frozen at −20° C. until assay for osmolality. Then, three 30-minute baseline urine collections with midpoint blood samples and continuous recording of MAP were made on one or two occasions separated by at least 48 hours, in order to accurately measure control MAP, GFR, ERPF, and ERVR (MAP/ERPF). The hematocrit was also routinely determined on these midpoint blood samples. The renal clearances of IN and PAH were used to assess GFR and ERPF, respectively. […] Next, an osmotic minipump containing purified porcine RLX (4 μg/hour; n=7 rats), rhRLX (4 μg/hour; n=5) or vehicle (n=4) was implanted. MAP, GFR, ERPF, and ERVR were assessed on days 2 and 5 of the infusion, and 5-12 days after depletion of the 7-day minipump. Details of our methodologies for the assessment of GFR and ERPF in chronically instrumented, conscious rats including the measurement of IN and PAH in both plasma and urine have been previously published. Conrad (1984) Kidney Int. 26:24-29; and Danielson and Conrad (1995) J. Clin. Invest. 96:482-490. Circulating relaxin concentrations of 20-40 ng/mL have been measured in rats of 12-14 gestational days. Sherwood et al. (1980) Endocrinol. 107:691-698. An infusion rate of 4 μg/hour for purified porcine RLX or rhRLX would be expected to produce plasma levels of 20-40 ng/mL.
Plasma osmolality was measured using a freezing-point depression instrumentation osmometer (Model 3MO, Advanced Instruments, Needham Heights, Mass.). Plasma and urine IN and PAH were assayed by standard techniques. Urinary sodium concentration was measured by ion selective electrode (Sodium-Potassium Chemistry Module, Beckman Instruments, Inc., Brea, Calif.). Urinary cGMP was determined by specific radioimmunoassay as previously described. Conrad and Vernier (1989) Am. J. Physiol. 257:R847-R853. Urinary NOX was measured by reduction of nitrate to nitrite, the latter determined by the Griess reaction which produces a calorimetric product measured at 540 nm (Nitrate/Nitrite Colorimetric Assay Kit, Cayman Chemical, Ann Arbor, Mich.).
Data are presented as mean±SEM. rhRLX, recombinant human relaxin. RLX was infused at 4 μg/h by osmotic minipump s.c. There were 7, 4, and 5 rats, respectively, in the porcine RLX, vehicle, and rhRLX groups at baseline, and days 2 and 5 of treatment. During the post RLX period, 6, 2, and 2 rats were studied in the porcine RLX, vehicle and rhRLX groups. Two of the rats in the vehicle group received Ringer's solution (vehicle for porcine RLX), and two received 20 mM sodium acetate, pH 5.0 (vehicle for rhRLX). The results were not different, and therefore, the data were combined. *p<0.05 vs baseline, Hp<0.05 RLX vs vehicle.

[1] = test system: hypoxia-exposed and room-air Sprague-Dawley rats; type: in vivo, rat; settings: for mean RVP compared to the veh-hyp group: hypoxia 10 days (FIG. 7)
Method: Outbred 6-week-old Sprague-Dawley rats, 200-220 g body weight, were obtained from Hilltop Laboratories, Scottdale, Pa. Recombinant human relaxin (rhRlx) (5.0 mg/ml in 20 mM sodium acetate, pH5.0) and vehicle (20 mM acetate, pH5.0) were provided by Connetics Corporation (Palo Alto, Calif.). Miniosmotic pumps were purchased from Alza Corporation (Model 2002, Alza Corp., Palo Alto, Calif.).
Mini osmotic pumps were filled to deliver rhRlx at […], or vehicle alone. Osmotic pumps were inserted subcutaneously in rats under a combination of ketamine and xylazine anaesthesia. The area around the back of the neck was shaved, cleaned with alcohol, and a small incision made for pump insertion. Incision was closed with surgical staples. After the animals were fully conscious they were randomly assigned to either hypoxic exposure or room air. Rats were subjected to either air or hypoxia, as described below. There were three groups of rats subjected to air: vehicle-treated (veh-air), 0.05 mg/kg/day rhRlx (low rhRlx-air), and 0.24 mg/kg/day rhRlx (hi rhRlx-air). There were three groups subjected to hypoxia: vehicle (veh-hyp), 0.05 mg/kg/day rhRlx (low rhRlx-hyp), and 0.24 mg/kg/day rhRlx (hi rhRlx-hyp).
Rats were exposed to hypoxia (10% O2, 90% N2) at ambient pressure (Kerr et al., 1987) for 10 days, control groups were exposed to room air in the same room. Hypoxic animals were fed standard rat chow and water. Age-matched control groups were weight-matched by feeding the amount of food consumed by the rats in the hypoxic groups. At the end of the test period, mean right ventricular pressure (RVP) was measured in rats anaesthetized with an intraperitoneal injection of 50 mg/kg pentobarbital sodium. The portal vein was then cut for hematocrit measurement (Hct) and blood sampling, and the ratio of the right ventricle to left ventricle plus septum measured [RV/(LV+S)] (Kerr et al., 1987). To determine the effect of acute administration of rhRlx on pulmonary artery pressure, four 10-day hypoxic rats were anaesthetized, as previously described, and RVP monitored for 1 hr following administration of a bolus dose of 2 μg rhRlx in 0.2 ml total volume, followed by an infusion of 2 μg rhRlx in 0.2 ml, given over 10 min.
The pulmonary artery trunk, right and left extrapulmonary branches were removed en bloc, cleaned of surrounding tissue, and weighed. The left lung was and excised and the entire hilar artery dissected from parenchyma and weighed (Tozzi et al. (1994) Am. J. Respir. Crit. Care Med. 149:1316-1326). Segments were hydrolyzed, and total hydroxyproline and protein determined (Poiani et al. (1990) Circ. Res. 66:968-978). Approximately 3 cc of whole blood was centrifuged, serum aspirated, and sample frozen at −20° C. for determination of rRlx levels by ELISA assay.

[2] = Baseline, before 4 μg/h s.c. minipump

Porcine RLX: lyophilized, purified porcine relaxin (Sherwood and O'Byrne 1974), dissolved in Ringer's solution
Hematocrit, Difference between baseline and Day 5 (intact, female rats): −4 ± 1 %
Plasma osmolality, Difference between baseline and Day 5 (intact, female rats): −14 ± 3 mOsm/kg H2O
Hematocrit (intact, female rats; [2]): 42 ± 1%
Plasma osmolality (intact, female rats; [2]): 301 ± 2 mOsm/kg H2O
Hematocrit (intact, female rats; Day 2 of 4 μg/h s.c. infusion): 39 ± 1* %
Plasma osmolality (intact, female rats; Day 2 of 4 μg/h s.c. infusion): 289 ± 2*† mOsm/kg H2O
Hematocrit (intact, female rats; Day 5 of 4 μg/h s.c. infusion): 37 ± 1*† %
Plasma osmolality (intact, female rats; Day 5 of 4 μg/h s.c. infusion): 287 ± 2*† mOsm/kg H2O
Hematocrit (intact, female rats; Post RLX Day 5-12): 40 ± 1%
Plasma osmolality (intact, female rats; Post RLX Day 5-12): 299 ± 2 mOsm/kg H2O

rhRLX: recombinant human relaxin, identical in amino acid sequence to the product of the human H2 gene; A chain of 24, B chain of 29 amino acids
Hydroxyproline Hilar ([1]; 1 mg-air): 38.0 ± 2.3 μg/vessel
Hydroxyproline MPA ([1]; 1 mg-air): 76.4 ± 4.0 μg/vessel
Protein Hilar ([1]; 1 mg-air): 0.78 ± 0.3 mg/vessel
Protein MPA ([1]; 1 mg-air): 2.6 ± 0.2 mg/vessel
Hydroxyproline Hilar ([1]; 1 mg-hyp): 41.0 ± 3.3 μg/vessel
Hydroxyproline MPA ([1]; 1 mg-hyp): 95.2 ± 3.6 μg/vessel
Protein Hilar ([1]; 1 mg-hyp): 0.90 ± 0.2 mg/vessel
Protein MPA ([1]; 1 mg-hyp): 2.3 ± 0.2 mg/vessel
Hydroxyproline Hilar ([1]; 5 mg-air): 33.5 ± 1.5 μg/vessel
Hydroxyproline MPA ([1]; 5 mg-air): 75.2 ± 4.0 μg/vessel
Protein Hilar ([1]; 5 mg-air): 1.1 ± 0.1 mg/vessel
Protein MPA ([1]; 5 mg-air): 2.5 ± 0.3 mg/vessel
Hydroxyproline Hilar ([1]; 5 mg-hyp): 37.0 ± 5.0*↑ μg/vessel
Hydroxyproline MPA ([1]; 5 mg-hyp): 86.6 ± 6.0*↑ μg/vessel
Protein Hilar ([1]; 5 mg-hyp): 0.75 ± 0.8 mg/vessel
Protein MPA ([1]; 5 mg-hyp): 2.0 ± 0.4 mg/vessel
RV/(LV+S) ratio compared to the veh-hyp group ([1]; hi rhRlx-hyp): significantly reduced
mean RVP compared to the veh-hyp group ([1]; high dose): decreased
mean RVP compared to the veh-hyp group ([1]; low dose): decreased
RV/(LV+S) ratio compared to the veh-hyp group ([1]; low rhRlx-hyp): significantly reduced
Hematocrit, Difference between baseline and Day 5 (intact, female rats): −2 ± 1 %
Plasma osmolality, Difference between baseline and Day 5 (intact, female rats): −12 ± 2 mOsm/kg H2O
Hematocrit (intact, female rats; [2]): 39 ± 0%
Plasma osmolality (intact, female rats; [2]): 299 ± 2 mOsm/kg H2O
Hematocrit (intact, female rats; Day 2 of 4 μg/h s.c. infusion): 37 ± 1* %
Plasma osmolality (intact, female rats; Day 2 of 4 μg/h s.c. infusion): 291 ± 3*† mOsm/kg H2O
Hematocrit (intact, female rats; Day 5 of 4 μg/h s.c. infusion): 37 ± 1*† %
Plasma osmolality (intact, female rats; Day 5 of 4 μg/h s.c. infusion): 286 ± 2*† mOsm/kg H2O
Hematocrit (intact, female rats; Post RLX Day 5-12): 40%
Plasma osmolality (intact, female rats; Post RLX Day 5-12): 302 mOsm/kg H2O
